Assay results from patent US6727237B2, “Inhibitors of bacterial NAD synthetase” (priority 1998, dated 2004).

Biological target: T1, bacterial NAD synthetase enzyme (Bacillus subtilis, UniProt P08164)
T1 sequence (P08164 2-272 limits assumed): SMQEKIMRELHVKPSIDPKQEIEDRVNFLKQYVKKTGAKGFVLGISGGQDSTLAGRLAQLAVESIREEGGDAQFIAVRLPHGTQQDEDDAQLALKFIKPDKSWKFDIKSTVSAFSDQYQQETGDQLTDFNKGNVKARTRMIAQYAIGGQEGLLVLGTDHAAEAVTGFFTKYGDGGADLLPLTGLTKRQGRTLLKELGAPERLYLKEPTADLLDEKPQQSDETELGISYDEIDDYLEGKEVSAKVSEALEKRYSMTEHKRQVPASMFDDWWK
Assay: biochemical
Format: biochemical

Row | SMILES | % Inhibition (compound at 0.25 mM) [%] | IC50 [µM] | other results
1 | C[N+](C)(C)c1cccc(C(=O)OCCCCc2cc3cc(Oc4ccccc4)ccc3[nH]2)c1 [Compound 871] | 81.9 |  | 
2 | C[N+](C)(C)c1cccc(C(=O)OCCCCCCCc2cc3cc(Oc4ccccc4)ccc3[nH]2)c1 [Compound 872] |  | 50 | inhibition at 100 µM: 98.3%
3 | C[N+](C)(C)c1cccc(C(=O)OCCCCCCCCc2cc3cc(Oc4ccccc4)ccc3[nH]2)c1 [Compound 873] | 98.0 |  | 
4 | CC(C)c1ccc2[nH]c(CCCCCCCOC(=O)c3cccc([N+](C)(C)C)c3)cc2c1 [Compound 875] |  | 45 | inhibition at 100 µM: 93.6%
5 | CC(C)c1ccc2[nH]c(CCCCCCCCOC(=O)c3cccc([N+](C)(C)C)c3)cc2c1 [Compound 876] |  | 75 | inhibition at 100 µM: 95.4%
6 | CC(=O)c1ccc2[nH]c(CCCCOC(=O)c3cccc([N+](C)(C)C)c3)cc2c1 [Compound 877] | 98.3 |  | 
7 | CC(=O)c1ccc2[nH]c(CCCCCCCOC(=O)c3cccc([N+](C)(C)C)c3)cc2c1 [Compound 878] |  | 80 | inhibition at 100 µM: 96.4%
8 | CC(=O)c1ccc2[nH]c(CCCCCCCCOC(=O)c3cccc([N+](C)(C)C)c3)cc2c1 [Compound 879] |  | 40 | inhibition at 100 µM: 99.6%
9 | C[N+](C)(C)c1cccc(C(=O)OCCCCc2cc3cc(C(=O)c4ccccc4)ccc3[nH]2)c1 [Compound 880] | 96.7 |  | 
10 | C[N+](C)(C)c1cccc(C(=O)OCCCCCCCc2cc3cc(C(=O)c4ccccc4)ccc3[nH]2)c1 [Compound 881] |  |  | % Inhibition (compound at 0.1 mM (Table 314)): 90.89%
11 | C[N+](C)(C)c1cccc(C(=O)OCCCCCCCCc2cc3cc(C(=O)c4ccccc4)ccc3[nH]2)c1 [Compound 882] |  | 90 | inhibition at 100 µM: 94.5%
12 | C[N+](C)(C)c1ccc(C(=O)OCCCCCCCc2cc3ccc(C(F)(F)F)cc3[nH]2)cc1 [Compound 884] |  | 45 | 
13 | C[N+](C)(C)c1ccc(C(=O)OCCCCCCCCc2cc3ccc(C(F)(F)F)cc3[nH]2)cc1 [Compound 885] | 98.0 |  | 
14 | C[N+](C)(C)c1ccc(C(=O)OCCCCc2cc3cc(Oc4ccccc4)ccc3[nH]2)cc1 [Compound 886] |  | 80 | inhibition at 100 µM: 94.5%
15 | C[N+](C)(C)c1ccc(C(=O)OCCCCCCCc2cc3cc(Oc4ccccc4)ccc3[nH]2)cc1 [Compound 887] |  | 25 | 
16 | C[N+](C)(C)c1ccc(C(=O)OCCCCCCCCc2cc3cc(Oc4ccccc4)ccc3[nH]2)cc1 [Compound 888] | 99.0 |  | 
17 | CC(C)c1ccc2[nH]c(CCCCOC(=O)c3ccc([N+](C)(C)C)cc3)cc2c1 [Compound 889] |  | 75 | inhibition at 100 µM: 93.6%
18 | CC(C)c1ccc2[nH]c(CCCCCCCCOC(=O)c3ccc([N+](C)(C)C)cc3)cc2c1 [Compound 891] |  | 80 | inhibition at 250 µM: 99.9%
19 | CC(=O)c1ccc2[nH]c(CCCCOC(=O)c3ccc([N+](C)(C)C)cc3)cc2c1 [Compound 892] | 97.7 |  | 
20 | CC(=O)c1ccc2[nH]c(CCCCCCCOC(=O)c3ccc([N+](C)(C)C)cc3)cc2c1 [Compound 893] | 13.8 |  | 
21 | CC(=O)c1ccc2[nH]c(CCCCCCCCOC(=O)c3ccc([N+](C)(C)C)cc3)cc2c1 [Compound 894] |  | 50 | inhibition at 100 µM: 91.1%
22 | C[N+](C)(C)c1ccc(C(=O)OCCCCc2cc3cc(C(=O)c4ccccc4)ccc3[nH]2)cc1 [Compound 895] | 95.7 |  | 
23 | C[N+](C)(C)c1ccc(C(=O)OCCCCCCCCc2cc3cc(C(=O)c4ccccc4)ccc3[nH]2)cc1 [Compound 897] | 50.9 |  | 
24 | C[n+]1ccc(C(=O)OCCCCc2cc3ccc(C(F)(F)F)cc3[nH]2)cc1 [Compound 898] | 51.8 |  | 
25 | C[n+]1ccc(C(=O)OCCCCCCCCc2cc3ccc(C(F)(F)F)cc3[nH]2)cc1 [Compound 900] | 84.9 |  | 
26 | C[n+]1ccc(C(=O)OCCCCc2cc3cc(Oc4ccccc4)ccc3[nH]2)cc1 [Compound 901] | 32.8 |  | 

Row | SMILES | % Inhibition (compound at 0.25 mM) [%] | IC50 [µM] | other results
27 | C[n+]1ccc(C(=O)OCCCCCCCCc2cc3cc(Oc4ccccc4)ccc3[nH]2)cc1 [Compound 903] | 95.5 |  | 
28 | CC(C)c1ccc2[nH]c(CCCCOC(=O)c3cc[n+](C)cc3)cc2c1 [Compound 904] |  |  | % Inhibition (compound at 0.1 mM (Table 314)): 47.68%
29 | CC(C)c1ccc2[nH]c(CCCCCCCCOC(=O)c3cc[n+](C)cc3)cc2c1 [Compound 906] |  | 25 | 
30 | CC(=O)c1ccc2[nH]c(CCCCOC(=O)c3cc[n+](C)cc3)cc2c1 [Compound 907] | 20.6 |  | 
31 | CC(=O)c1ccc2[nH]c(CCCCCCCCOC(=O)c3cc[n+](C)cc3)cc2c1 [Compound 909] |  | 25 | inhibition at 100 µM: 97.2%
32 | C[n+]1ccc(C(=O)OCCCCc2cc3cc(C(=O)c4ccccc4)ccc3[nH]2)cc1 [Compound 910] | 88.5 |  | 
33 | C[n+]1ccc(C(=O)OCCCCCCCCc2cc3cc(C(=O)c4ccccc4)ccc3[nH]2)cc1 [Compound 912] | 27.6 |  | 
34 | C[n+]1cccc(C(=O)OCCCCc2cc3ccc(C(F)(F)F)cc3[nH]2)c1 [Compound 913] | 7.6 |  | 
35 | C[n+]1cccc(C(=O)OCCCCCCCCc2cc3ccc(C(F)(F)F)cc3[nH]2)c1 [Compound 915] | 95.7 |  | 
36 | C[n+]1cccc(C(=O)OCCCCCCCc2cc3cc(Oc4ccccc4)ccc3[nH]2)c1 [Compound 917] |  | 60 | inhibition at 250 µM: 88.9%
37 | C[n+]1cccc(C(=O)OCCCCCCCCc2cc3cc(Oc4ccccc4)ccc3[nH]2)c1 [Compound 918] | 98.6 |  | 
38 | CC(C)c1ccc2[nH]c(CCCCOC(=O)c3ccc[n+](C)c3)cc2c1 [Compound 919] | 90.2 |  | 
39 | CC(C)c1ccc2[nH]c(CCCCCCCCOC(=O)c3ccc[n+](C)c3)cc2c1 [Compound 921] |  | 25 | inhibition at 100 µM: 96.7%
40 | CC(=O)c1ccc2[nH]c(CCCCOC(=O)c3ccc[n+](C)c3)cc2c1 [Compound 922] | 87.4 |  | 
41 | CC(=O)c1ccc2[nH]c(CCCCCCCCOC(=O)c3ccc[n+](C)c3)cc2c1 [Compound 924] |  | 25 | inhibition at 100 µM: 97.7%
42 | C[n+]1cccc(C(=O)OCCCCCCCCc2cc3cc(C(=O)c4ccccc4)ccc3[nH]2)c1 [Compound 927] | 93.1 |  | 
43 | C[n+]1cccc(CC(=O)OCCCCCCCCc2cc3ccc(C(F)(F)F)cc3[nH]2)c1 [Compound 930] | 96.7 |  | 
44 | C[n+]1cccc(CC(=O)OCCCCc2cc3cc(Oc4ccccc4)ccc3[nH]2)c1 [Compound 931] | 15.8 |  | 
45 | CC(C)c1ccc2[nH]c(CCCCOC(=O)Cc3ccc[n+](C)c3)cc2c1 [Compound 934] | 98.5 |  | 
46 | CC(C)c1ccc2[nH]c(CCCCCCCCOC(=O)Cc3ccc[n+](C)c3)cc2c1 [Compound 936] |  | 60 | inhibition at 100 µM: 97.8%
47 | CC(=O)c1ccc2[nH]c(CCCCOC(=O)Cc3ccc[n+](C)c3)cc2c1 [Compound 937] | 88.8 |  | 
48 | CC(=O)c1ccc2[nH]c(CCCCCCCOC(=O)Cc3ccc[n+](C)c3)cc2c1 [Compound 938] | 98.8 |  | 
49 | C[n+]1cccc(CC(=O)OCCCCCCCc2cc3cc(C(=O)c4ccccc4)ccc3[nH]2)c1 [Compound 941] |  | 50 | inhibition at 100 µM: 100%
50 | C[n+]1cccc(CC(=O)OCCCCCCCCc2cc3cc(C(=O)c4ccccc4)ccc3[nH]2)c1 [Compound 942] |  | 75 | inhibition at 100 µM: 97.8%
51 | O=C(OCCCCCCn1ccc2ccccc21)c1cccnc1 [Compound 943] |  |  | % Inhibition (compound at 0.1 mM (Table 314)): 21.38%
